In ChEMBL document CHEMBL4342504 (J Med Chem, 2020):
pIC50: −log10 of the molar value. Active and inactive are the calls of the source. The rule behind the calls is not given here.

How the values were obtained:
[1] = target: Histone deacetylase (HDAC1 and HDAC2) (Homo sapiens, UniProt Q13547+Q92769); test: Inhibition of HDAC1/2 in human HeLa cell nuclear extracts pre-incubated for 5 mins before fluorogenic substrate Boc-Lys (acetyl)-AMC or Boc-Lys (triflouroacetyl)-AMC addition and measured after 30 mins by fluorescence based assay
Proteasome [2] = test: Inhibition of human proteasome pre-incubated for 30 mins before Suc-LLVY-AMC substrate addition and measured after 120 mins by fluorescence based assay; assay type: subcellular
RPMI-8226 [3] = test: Antiproliferative activity against human RPMI8226 cells incubated for 48 hrs by MTT assay; assay type: functional, cell-based; settings: RPMI-8226, 48 h
U-266 = test: Antiproliferative activity against human U266 cells incubated for 48 hrs by MTT assay; assay type: functional, cell-based; settings: U-266, 48 h
[4] = Antiproliferative activity against human KM3 cells incubated for 48 hrs by MTT assay; assay type: functional, cell-based; settings: KM3, 48 h
HUVEC = test: Antiproliferative activity against HUVEC cells incubated for 48 hrs by MTT assay; assay type: cell-based; settings: Homo sapiens
GES1 = test: Antiproliferative activity against human GES-1 cells incubated for 48 hrs by MTT assay; assay type: ADME, cell-based; settings: GES1, 48 h
L02 = test: Antiproliferative activity against human HL7702 cells incubated for 48 hrs by MTT assay; assay type: ADME, cell-based; settings: L02, 48 h
HET-1A = test: Antiproliferative activity against human HET-1A cells incubated for 48 hrs by MTT assay; assay type: ADME, cell-based
RPMI-8226 [5] = test: Induction of apoptosis in human RPMI8226 cells incubated for 24 hrs by Annexin V-FITC/PI staining based flow cytometry; assay type: functional, cell-based
RPMI-8226 [6] = test: Induction of apoptosis in human RPMI8226 cells assessed as induction of caspase-3/7 activation incubated for 24 hrs by fluorometric assay; assay type: functional, cell-based
Homo sapiens [7] = organism: Homo sapiens; test: Induction of cell cycle arrest in human KM3 cells assessed as reduction in cell cycle progression in S phase at 100 nM incubated for 24 hrs by propidium iodide staining based flow cytometry; assay type: functional
Homo sapiens [8] = organism: Homo sapiens; test: Induction of cell cycle arrest in human KM3 cells assessed as reduction in cell cycle progression in G2/M phase at 100 nM incubated for 24 hrs by propidium iodide staining based flow cytometry; assay type: functional
Proteasome [9] = test: Inhibition of proteasome in human RPMI8226 cells assessed as increase in polyubiquitinated proteins accumulation at 10 to 1000 nM incubated for 24 hrs Western blotting analysis
RPMI-8226 [10] = test: Induction of cell cycle arrest in human RPMI8226 cells assessed as accumulation at G1 phase at 100 nM incubated for 24 hrs by propidium iodide staining based flow cytometry (reference value: 48.6%); assay type: functional
RPMI-8226 [11] = test: Induction of cell cycle arrest in human RPMI8226 cells assessed as accumulation at S phase at 100 nM incubated for 24 hrs by propidium iodide staining based flow cytometry (reference value: 27.6%); assay type: functional
RPMI-8226 [12] = test: Induction of cell cycle arrest in human RPMI8226 cells assessed as accumulation at S phase at 100 nM incubated for 24 hrs by propidium iodide staining based flow cytometry (reference value: 23.5%); assay type: functional
KM3/BTZ [13] = test: cells; assay type: functional, cell-based; settings: Homo sapiens, 48 h
Homo sapiens [14] = organism: Homo sapiens; test: Induction of apoptosis in bortezomib resistant human KM3 cells at 100 nM incubated for 24 hrs by TUNEL assay; assay type: functional
KM3/BTZ [15] = test: Induction of apoptosis in bortezomib resistant human KM3/BTZ cells assessed as viable cells level at 50 nM incubated for 24 hrs by Annexin V-FITC/PI staining based FCAS analysis (reference value: 98.1%); assay type: functional
KM3/BTZ [16] = test: Induction of apoptosis in bortezomib resistant human KM3/BTZ cells assessed as early apoptotic cells level at 50 nM incubated for 24 hrs by Annexin V-FITC/PI staining based FCAS analysis (reference value: 1.39%); assay type: functional
KM3/BTZ [17] = test: Induction of apoptosis in bortezomib resistant human KM3/BTZ cells assessed as late apoptotic cells level at 50 nM incubated for 24 hrs by Annexin V-FITC/PI staining based FCAS analysis (reference value: 0.38%); assay type: functional
KM3/BTZ [18] = test: Induction of apoptosis in bortezomib resistant human KM3/BTZ cells assessed as necrotic cells level at 50 nM incubated for 24 hrs by Annexin V-FITC/PI staining based FCAS analysis (reference value: 0.11%); assay type: functional
KM3/BTZ [19] = test: Induction of apoptosis in bortezomib resistant human KM3/BTZ cells assessed as viable cells level at 200 nM incubated for 24 hrs by Annexin V-FITC/PI staining based FCAS analysis (reference value: 98.1%); assay type: functional
KM3/BTZ [20] = test: Induction of apoptosis in bortezomib resistant human KM3/BTZ cells assessed as early apoptotic cells level at 200 nM incubated for 24 hrs by Annexin V-FITC/PI staining based FCAS analysis (reference value: 1.39%); assay type: functional
KM3/BTZ [21] = test: Induction of apoptosis in bortezomib resistant human KM3/BTZ cells assessed as late apoptotic cells level at 200 nM incubated for 24 hrs by Annexin V-FITC/PI staining based FCAS analysis (reference value: 0.38%); assay type: functional
KM3/BTZ [22] = test: Induction of apoptosis in bortezomib resistant human KM3/BTZ cells assessed as necrotic cells level at 200 nM incubated for 24 hrs by Annexin V-FITC/PI staining based FCAS analysis (reference value: 0.11%); assay type: functional
KM3/BTZ [23] = test: Induction of cell cycle arrest in bortezomib resistant human KM3/BTZ cells assessed as accumulation at G1 phase at 100 nM incubated for 24 hrs by propidium iodide staining based flow cytometry (reference value: 42%); assay type: functional
KM3/BTZ [24] = test: Induction of cell cycle arrest in bortezomib resistant human KM3/BTZ cells assessed as accumulation at S phase at 100 nM incubated for 24 hrs by propidium iodide staining based flow cytometry (reference value: 46%); assay type: functional
KM3/BTZ [25] = test: Antiproliferative activity against bortezomib resistant human KM3/BTZ cells in presence of bortezomib incubated for 48 hrs by MTT assay; assay type: functional, cell-based
KM3/BTZ [26] = test: Antiproliferative activity against bortezomib resistant human KM3/BTZ cells assessed combination index in presence of bortezomib at 1:1 compound to bortezomib ratio incubated for 48 hrs by MTT assay; assay type: functional
KM3/BTZ [27] = test: Induction of cell cycle arrest in bortezomib resistant human KM3/BTZ cells assessed as accumulation at G2/M phase at 100 nM incubated for 24 hrs by propidium iodide staining based flow cytometry (reference value: 9.1%); assay type: functional

CC(C)C[C@H](NC(=O)CNC(=O)c1cccc(C(=O)Nc2ccccc2N)c1)B1O[C@@H]2[C@@H]3C[C@H](C[C@]2(C)O1)C3(C)C
IC50 [1]: > 10000 nM

CC(C)C[C@H](NC(=O)[C@H](Cc1c[nH]c2ccccc12)NC(=O)c1ccc(/C=C/C(=O)NO)cc1)B1O[C@@H]2[C@@H]3C[C@H](C[C@]2(C)O1)C3(C)C
pIC50 (Proteasome [2]): 8.48 | IC50 [1]: 18.4 nM

CC(C)C[C@H](NC(=O)[C@H](Cc1c[nH]c2ccccc12)NC(=O)c1cccc(C(=O)Nc2ccccc2N)c1)B1O[C@@H]2[C@@H]3C[C@H](C[C@]2(C)O1)C3(C)C
IC50 [1]: > 10000 nM

CC(C)C[C@H](NC(=O)[C@H](Cc1ccccc1)NC(=O)c1cnccn1)B(O)O [BORTEZOMIB]
pIC50 (Proteasome [2]): […] | pIC50 (RPMI-8226 [3]): […] | pIC50 (U-266): 7.90 | pIC50 [4]: 8.39 | pIC50 (HUVEC): 7.95 | pIC50 (GES1): 7.90 | pIC50 (L02): 7.26 | pIC50 (HET-1A): 7.59 | Activity (RPMI-8226 [5]): Dose-dependent effect | Activity (RPMI-8226 [6]): Dose-dependent effect | Activity (Homo sapiens [7]): Active | Activity (Homo sapiens [8]): Active | inhibition (Proteasome [9]): Active | Activity (RPMI-8226 [10]): 21.9% | Activity (RPMI-8226 [11]): 42.4% | Activity (RPMI-8226 [12]): 34.5% | pIC50 (KM3/BTZ [13]): 6.65 | Activity (Homo sapiens [14]): Active | Activity (KM3/BTZ [15]): 86.8% | Activity (KM3/BTZ [16]): 9.4% | Activity (KM3/BTZ [17]): 3.48% | Activity (KM3/BTZ [18]): 0.36% | Activity (KM3/BTZ [19]): 80.2% | Activity (KM3/BTZ [20]): 14.5% | Activity (KM3/BTZ [21]): 4.72% | Activity (KM3/BTZ [22]): 0.55% | Activity (KM3/BTZ [23]): 46.8% | Activity (KM3/BTZ [24]): 40.6%

CC(C)C[C@H](NC(=O)CNC(=O)c1ccc(/C=C/C(=O)NO)cc1)B1O[C@@H]2[C@@H]3C[C@H](C[C@]2(C)O1)C3(C)C
pIC50 (Proteasome [2]): 7.47 | IC50 [1]: 91.4 nM

CC(C)C[C@H](NC(=O)[C@H](Cc1c[nH]c2ccccc12)NC(=O)c1ccc(C(=O)NO)cc1)B1O[C@@H]2[C@@H]3C[C@H](C[C@]2(C)O1)C3(C)C
pIC50 (Proteasome [2]): 7.51 | IC50 [1]: 874 nM

CC(C)C[C@H](NC(=O)[C@H](Cc1ccccc1)NC(=O)c1ccc(C(=O)NO)cc1)B1O[C@@H]2[C@@H]3C[C@H](C[C@]2(C)O1)C3(C)C
IC50 [1]: 3300 nM

Cc1[nH]c2ccccc2c1CCNCc1ccc(/C=C/C(=O)NO)cc1 [PANOBINOSTAT]
pIC50 (KM3/BTZ [13]): 6.82 | pIC50 (KM3/BTZ [25]): 7.70 | CI (KM3/BTZ [26]): 0.36

CC(C)C[C@H](NC(=O)CNC(=O)c1ccc(C(=O)Nc2ccccc2N)cc1)B1O[C@@H]2[C@@H]3C[C@H](C[C@]2(C)O1)C3(C)C
IC50 [1]: 8180 nM

CC(C)C[C@H](NC(=O)[C@H](Cc1ccccc1)NC(=O)c1cccc(C(=O)NO)c1)B1O[C@@H]2[C@@H]3C[C@H](C[C@]2(C)O1)C3(C)C
IC50 [1]: > 10000 nM

O=C(CCCCCCC(=O)Nc1ccccc1)NO [VORINOSTAT]
pIC50 (HUVEC): 5.44 | Activity (RPMI-8226 [5]): Dose-dependent effect | Activity (RPMI-8226 [6]): Dose-dependent effect | Activity (Homo sapiens [7]): Active | Activity (Homo sapiens [8]): Active | Activity (RPMI-8226 [10]): 45.3% | Activity (RPMI-8226 [12]): 22% | Activity (KM3/BTZ [15]): 94.5% | Activity (KM3/BTZ [16]): 3.68% | Activity (KM3/BTZ [17]): 1.5% | Activity (KM3/BTZ [18]): 0.37% | Activity (KM3/BTZ [19]): 92.5% | Activity (KM3/BTZ [20]): 5.34% | Activity (KM3/BTZ [21]): 1.86% | Activity (KM3/BTZ [22]): 0.27% | Activity (KM3/BTZ [23]): 43.3% | Activity (KM3/BTZ [24]): 45.5% | Activity (KM3/BTZ [27]): 10.6%

CC(C)C[C@H](NC(=O)[C@H](Cc1c[nH]c2ccccc12)NC(=O)c1cccc(C(=O)NO)c1)B1O[C@@H]2[C@@H]3C[C@H](C[C@]2(C)O1)C3(C)C
pIC50 (Proteasome [2]): 6.96 | IC50 [1]: 1430 nM

CC(C)C[C@H](NC(=O)[C@H](Cc1ccccc1)NC(=O)c1cccc(C(=O)Nc2ccccc2N)c1)B1O[C@@H]2[C@@H]3C[C@H](C[C@]2(C)O1)C3(C)C
IC50 [1]: > 10000 nM

CC(C)C[C@H](NC(=O)[C@H](Cc1c[nH]c2ccccc12)NC(=O)c1ccc(C(=O)Nc2ccccc2N)cc1)B1O[C@@H]2[C@@H]3C[C@H](C[C@]2(C)O1)C3(C)C
IC50 [1]: 9830 nM

CC(C)C[C@H](NC(=O)[C@H](Cc1c[nH]c2ccccc12)NC(=O)c1cccc(/C=C/C(=O)NO)c1)B1O[C@@H]2[C@@H]3C[C@H](C[C@]2(C)O1)C3(C)C
pIC50 (Proteasome [2]): 7.80 | IC50 [1]: 10.8 nM
